Results on 26 compounds are retold here after patent publication US20220144823A1, “PYRAZOLOPYRIDINE DERIVATIVES AS INHIBITORS OF PASK” (Galapagos NV, priority 2019, published 2022).

Each structure is given as a SMILES string.

For one test, the target named is T1, human PASK (Homo sapiens, UniProt Q96RG2).
T1 construct: purchased ThermoFisher Scientific PR7013A
Description: ADP-Glo kinase assay. The settings on record: ADPGlo PASK kinase assay, 25 μM ATP, ZIPtide 25 μM. The test is classed as biochemical. Here is the method:
The ADP-Glo™ kinase assay is a luminescent technology assay which measures the ADP formed from a kinase reaction. In this specific study, the kinase reactions consisted of the phosphorylation of the ZIPtide peptide substrate by human recombinant PASK. In a second step the kinase reaction is terminated and all the remaining ATP is depleted. In a final step the ADP is converted into ATP and this newly synthesized ATP is measured by using a luciferase/luciferin reaction. The generated light is measured using an Envision plate reader, wherein the luminescent signal obtained positively correlates with the kinase activity.
The test compounds are prepared as a serial dilution of 10 point dose responses with 1/5 dilution steps in 100% DMSO starting from 2 mM highest concentration, diluted 1/20 in water and 1 μL is transferred to the assay plates (PerkinElmer Inc., Cat #6007290).
1% DMSO and 10 μM staurosporine final concentrations are used respectively as negative and positive controls.
2 μL enzyme-substrate mixture is added to the assay plates.
The reaction is started by adding 2 μL diluted ATP on the assay plates immediately after addition of the enzyme-substrate mixture to the compound. Plates are centrifuged for a few seconds at 1000 rpm and gently shaken for 2 min followed by an incubation at RT for 120 min.
The reactions are stopped and the unconsumed ATP is depleted by adding 5 μL ADP-Glo Reagent (Promega, Cat #V912B) to the reaction. The plates are centrifuged for a few seconds at 1000 rpm and incubated at RT for 40 min (ATP depletion).
The ADP is converted to ATP and luciferase and luciferin is introduced to detect ATP by adding 10 μL Kinase Detection Reagent (Promega, Cat #V913B+V914B) to the reaction. The plates are centrifuged for a few seconds at 1000 rpm and incubated at RT for 30 min (ADP detection).
Luminescence is measured on an Envision plate reader (PerkinElmer Inc.).
Raw data are generated following the read-out performed on the Envision plate reader, used to calculate percentage inhibition (PIN) values and plotted to generate dose response curves and derive the average half maximal inhibitory concentrations (IC50) reported in Table VIII.
(In ADP-Glo the light output rises with the ADP produced.)

The subject of test [1] is diabetic non human primates (NHPs) under a high-calorie diet (HCD). Description: Diabetic monkey model.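 Also: male obese diabetic cynomolgus monkeys fed a high-fat, high-fructose diet, randomized into 4 groups, dosed with test compound for 8 weeks, then a 4-week washout.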
Description: The aim of this assay is to determine the effect of a test compound on lipid metabolism and glucose handling in diabetic non human primates (NHPs) under a high-calorie diet (HCD) consisting of high-fat and high-fructose.
Male obese diabetic cynomolgus monkeys were selected based on their body weights, glucose, insulin levels, and blood lipid parameters. The inclusion criteria were the following: age ≤22 years; fasted plasma glucose between 120 and 300 mg/dL; triglycerides >125 mg/dL, and insulin >75 mIU/mL.
The animals are maintained at 20-23° C. and 40-70% humidity on a 12 h light/dark cycle (7 AM-7 PM). Water is provided ad libitum and the animals are fed twice daily with the high-calorie diet (HCD) enriched with seasonal fruits or vegetables.
After the baseline period, animals were randomized into 4 groups according to body weight, as well as their blood glucose and lipid parameters.
The following parameters were measured once per week during the 8 weeks of treatment and also during the 4 weeks of washout: • body weight • food consumption • blood chemistry (fasted blood glucose, plasma triglycerides, plasma total cholesterol, low density lipoproteins (LDL), and high density lipoproteins (HDL))
Oral glucose tolerance was measured in fasted animals before treatment initiation (baseline), at the end of the treatment period (week 8), and after 4 weeks of washout (week 12).
[2] abbreviates: week 1, treatment, metformin 25 mg/kg b.i.d., Cpd 18 30 mg/kg q.d., p.o.
The mark [3] stands for this setting: week 2, treatment, metformin 25 mg/kg b.i.d., Cpd 18 30 mg/kg q.d., p.o.
Where [4] appears, read: week 3, treatment, metformin 25 mg/kg b.i.d., Cpd 18 30 mg/kg q.d., p.o.
[5] abbreviates: week 4, treatment, metformin 25 mg/kg b.i.d., Cpd 18 30 mg/kg q.d., p.o.
[6] abbreviates: week 9, washout without treatment.
Where [7] appears, read: week 10, washout without treatment.
Where [8] appears, read: week 11, washout without treatment.
Where [9] appears, read: week 12, washout without treatment.

As a reminder, the IC50 is the concentration needed to halve the response being measured.

T1 sequence (Q96RG2 whole entry): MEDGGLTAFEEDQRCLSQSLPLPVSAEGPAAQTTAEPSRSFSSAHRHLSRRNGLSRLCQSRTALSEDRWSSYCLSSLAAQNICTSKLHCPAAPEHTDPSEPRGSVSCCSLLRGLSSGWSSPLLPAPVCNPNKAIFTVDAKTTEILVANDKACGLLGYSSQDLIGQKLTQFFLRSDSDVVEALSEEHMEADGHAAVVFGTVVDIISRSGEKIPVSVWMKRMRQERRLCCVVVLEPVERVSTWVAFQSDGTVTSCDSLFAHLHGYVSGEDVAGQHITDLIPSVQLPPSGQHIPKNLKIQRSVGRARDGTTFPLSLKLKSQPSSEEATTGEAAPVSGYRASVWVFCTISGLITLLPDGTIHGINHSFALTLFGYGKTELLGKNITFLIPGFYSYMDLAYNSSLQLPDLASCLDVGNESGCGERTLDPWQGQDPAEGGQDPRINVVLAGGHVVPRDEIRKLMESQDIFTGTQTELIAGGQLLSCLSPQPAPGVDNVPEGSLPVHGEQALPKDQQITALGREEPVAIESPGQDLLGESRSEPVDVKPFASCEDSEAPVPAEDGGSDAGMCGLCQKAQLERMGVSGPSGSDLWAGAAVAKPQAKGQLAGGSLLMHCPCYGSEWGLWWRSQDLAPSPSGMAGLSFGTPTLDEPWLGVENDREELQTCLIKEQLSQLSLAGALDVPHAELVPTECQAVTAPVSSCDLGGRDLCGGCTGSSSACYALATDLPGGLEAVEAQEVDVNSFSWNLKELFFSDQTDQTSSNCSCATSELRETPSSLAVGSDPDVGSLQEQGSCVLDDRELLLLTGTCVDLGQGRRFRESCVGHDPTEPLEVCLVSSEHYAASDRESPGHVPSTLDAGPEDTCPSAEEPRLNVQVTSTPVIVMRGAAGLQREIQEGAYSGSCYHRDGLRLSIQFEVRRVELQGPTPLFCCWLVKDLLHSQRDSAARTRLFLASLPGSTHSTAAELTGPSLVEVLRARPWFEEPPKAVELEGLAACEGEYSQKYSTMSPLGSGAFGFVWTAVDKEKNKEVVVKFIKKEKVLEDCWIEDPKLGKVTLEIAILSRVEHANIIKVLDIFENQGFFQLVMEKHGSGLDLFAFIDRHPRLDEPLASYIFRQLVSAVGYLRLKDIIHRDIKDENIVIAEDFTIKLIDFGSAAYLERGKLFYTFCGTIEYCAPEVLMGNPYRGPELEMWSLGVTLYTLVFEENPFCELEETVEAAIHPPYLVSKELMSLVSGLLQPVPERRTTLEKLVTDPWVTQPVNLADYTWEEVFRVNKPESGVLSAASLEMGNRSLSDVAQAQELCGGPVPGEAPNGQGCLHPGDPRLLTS

As for `Cc1nn(CC(F)(F)F)c(C)c1-c1cnn2ccc(-n3cc(C(=O)O)c(C(F)(F)F)n3)cc12` [Cpd 81, 1-[3-[3,5-dimethyl-1-(2,2,2-trifluoroethyl)pyrazol-4-yl]pyrazolo[1,5-a]pyridin-5-yl]-3-(trifluoromethyl)pyrazole-4-carboxylic acid], the IC50 at human PASK was 0.01 to 10 nM.

Regarding `Cc1nn(C)c(C)c1-c1cnn2ccc(-n3cc(C(=O)O)cn3)cc12` [Cpd 73, 1-[3-(1,3,5-trimethylpyrazol-4-yl)pyrazolo[1,5-a]pyridin-5-yl]pyrazole-4-carboxylic acid], at human PASK, the half-maximal inhibitory concentration (IC50) lay within 0.01 to 10 nM.

On to `CCOC(=O)c1sc(-c2ccn3ncc(-c4c(C)nn(C)c4C)c3c2)nc1OC` [Cpd 87, ethyl 4-methoxy-2-[3-(1,3,5-trimethylpyrazol-4-yl)pyrazolo[1,5-a]pyridin-5-yl]thiazole-5-carboxylate], for which the IC50 against human PASK lay within 100 to 500 nM.

Turning to `CCOC(=O)c1sc(-c2ccn3ncc(-c4c(C)nn(C)c4C)c3c2)nc1OCC` [Cpd 88, ethyl 4-ethoxy-2-[3-(1,3,5-trimethylpyrazol-4-yl)pyrazolo[1,5-a]pyridin-5-yl]thiazole-5-carboxylate], the IC50 against human PASK lay within 100 to 500 nM.

As to `Cc1nn(CC(F)(F)F)c(C)c1-c1cnn2ccc(-c3cc(C(=O)O)c(C4CCOCC4)o3)cc12` [Cpd 55, 5-[3-[3,5-dimethyl-1-(2,2,2-trifluoroethyl)pyrazol-4-yl]pyrazolo[1,5-a]pyridin-5-yl]-2-tetrahydropyran-4-yl-furan-3-carboxylic acid], the IC50 against human PASK is 0.01 to 10 nM.

Compound `Cc1c(-c2cnn3ccc(-c4cc(C(=O)O)co4)cc23)cnn1C` [Cpd 12, 5-[3-(1,5-dimethylpyrazol-4-yl)pyrazolo[1,5-a]pyridin-5-yl]furan-3-carboxylic acid] gave a half-inhibitory concentration (IC50) on human PASK of 0.01 to 10 nM.

`Cc1nn(C(F)F)c(C)c1-c1cnn2ccc(-c3cc(C(=O)O)c(C4=CCOCC4)o3)cc12` [Cpd 54, 5-[3-[1-(difluoromethyl)-3,5-dimethyl-pyrazol-4-yl]pyrazolo[1,5-a]pyridin-5-yl]-2-(3,6-dihydro-2H-pyran-4-yl)furan-3-carboxylic acid] came in with an IC50 against human PASK of 0.01 to 10 nM.

Compound `Cc1nn(C)c(C)c1-c1cnn2ccc(-c3cc(C(=O)OCOC(=O)C(C)(C)C)co3)cc12` [Cpd 13, 2,2-dimethylpropanoyloxymethyl 5-[3-(1,3,5-trimethylpyrazol-4-yl)pyrazolo[1,5-a]pyridin-5-yl]furan-3-carboxylate] showed a half-inhibitory concentration (IC50) against human PASK of 100 to 500 nM.

The compound `Cc1nn(CC(F)(F)F)c(C)c1-c1cnn2ccc(-c3cc(C(=O)O)c(C4=CCOCC4)o3)cc12` [Cpd 53, 2-(3,6-dihydro-2H-pyran-4-yl)-5-[3-[3,5-dimethyl-1-(2,2,2-trifluoroethyl)pyrazol-4-yl]pyrazolo[1,5-a]pyridin-5-yl]furan-3-carboxylic acid] yielded a 50% inhibitory concentration (IC50) against human PASK of 0.01 to 10 nM.

On human PASK, `COc1nn(-c2ccn3ncc(-c4c(C)noc4C)c3c2)cc1C(=O)O` [Cpd 63, 1-[3-(3,5-dimethylisoxazol-4-yl)pyrazolo[1,5-a]pyridin-5-yl]-3-methoxy-pyrazole-4-carboxylic acid] gave a half-maximal inhibitory concentration (IC50) of 10 to 100 nM.

Consider `Cc1nn(C(C)C)c(C)c1-c1cnn2ccc(-c3ccc(C(=O)O)o3)cc12` [Cpd 48, 5-[3-(1-isopropyl-3,5-dimethyl-pyrazol-4-yl)pyrazolo[1,5-a]pyridin-5-yl]furan-2-carboxylic acid], for which, on human PASK, the IC50 is 0.01 to 10 nM.

In the case of `CN(C)C(=N)N=C(N)N` [metformin, reference compound], the “Bodyweight change (% change from baseline)” value is 1.0% in test [1] (setting [2]); −0.7% in test [1] (setting [3]); −1.3% in test [1] (setting [4]); −5.2% in test [1] (setting [5]); −6.5% in test [1] (setting [6]); −7.3% in test [1] (setting [7]). Moreover, the “Bodyweight change (% change from baseline)” value in test [1] (setting [8]) is −6.3%; in test [1] (setting [9]), −6.1%. In addition, the “HbA1c change (% change from baseline)” value in test [1] (setting [2]) is on record as −2.8%; in test [1] (setting [3]) it was −12.3%; in test [1] (setting [4]), −17.2%; in test [1] (setting [5]) it was −18.9%; in test [1] (setting [6]) it was −24.1%; in test [1] (setting [7]), −23.5%. The “HbA1c change (% change from baseline)” value in test [1] (setting [8]) is recorded as −30.1%; in test [1] (setting [9]), −28.6%.

Take `COc1nn(-c2ccn3ncc(-c4c(C)nn(C(F)F)c4C)c3c2)cc1C(N)=O` [Cpd 83, 1-[3-[1-(difluoromethyl)-3,5-dimethyl-pyrazol-4-yl]pyrazolo[1,5-a]pyridin-5-yl]-3-methoxy-pyrazole-4-carboxamide]: the IC50 against human PASK lay in the range of 0.01 to 10 nM.

As to `CCOCCOc1nc(-c2ccn3ncc(-c4c(C)noc4C)c3c2)sc1C(=O)O` [Cpd 60, 2-[3-(3,5-dimethylisoxazol-4-yl)pyrazolo[1,5-a]pyridin-5-yl]-4-(2-ethoxyethoxy) thiazole-5-carboxylic acid], the half-inhibitory concentration (IC50) at human PASK lay within 0.01 to 10 nM.

The compound `CCn1nc(C)c(-c2cnn3ccc(-n4cc(C(=O)O)c(OC)n4)cc23)c1C` [Cpd 75, 1-[3-(1-ethyl-3,5-dimethyl-pyrazol-4-yl)pyrazolo[1,5-a]pyridin-5-yl]-3-methoxy-pyrazole-4-carboxylic acid] showed an IC50 against human PASK of 0.01 to 10 nM.

`Cc1noc(C)c1-c1cnn2ccc(-c3nc(OC(C)C)c(C(=O)O)s3)cc12` [Cpd 56, 2-[3-(3,5-dimethylisoxazol-4-yl)pyrazolo[1,5-a]pyridin-5-yl]-4-isopropoxy-thiazole-5-carboxylic acid]: at human PASK, the IC50 lay in the range of 0.01 to 10 nM.

As to `Cc1c(-c2cnn3ccc(-c4nc(C(=O)O)co4)cc23)c(C(F)(F)F)nn1C` [Cpd 57, 2-[3-[1,5-dimethyl-3-(trifluoromethyl)pyrazol-4-yl]pyrazolo[1,5-a]pyridin-5-yl]oxazole-4-carboxylic acid], the half-maximal inhibitory concentration (IC50) against human PASK was 0.01 to 10 nM.

The compound `Cc1nn(C(F)F)c(C)c1-c1cnn2ccc(-c3ncc(C(=O)O)o3)cc12` [Cpd 49, 2-[3-[1-(difluoromethyl)-3,5-dimethyl-pyrazol-4-yl]pyrazolo[1,5-a]pyridin-5-yl]oxazole-5-carboxylic acid] yielded an IC50 on human PASK of 0.01 to 10 nM.

Take `Cn1cc(-c2cnn3ccc(-c4cc(C(=O)O)co4)cc23)c(C(F)(F)F)n1` [Cpd 10, 5-[3-[1-methyl-3-(trifluoromethyl)pyrazol-4-yl]pyrazolo[1,5-a]pyridin-5-yl]furan-3-carboxylic acid]: the concentration for half-maximal inhibition (IC50) at human PASK was in the range of 0.01 to 10 nM.

Regarding `Cc1noc(C)c1-c1cnn2ccc(-n3cc(C(=O)O)cn3)cc12` [Cpd 47, 1-[3-(3,5-dimethylisoxazol-4-yl)pyrazolo[1,5-a]pyridin-5-yl]pyrazole-4-carboxylic acid], on human PASK, the 50% inhibitory concentration (IC50) lay in the range of 10 to 100 nM.

Take `Cc1nn(C(F)F)c(C)c1-c1cnn2ccc(-c3ccc(C(=O)O)o3)cc12` [Cpd 51, 5-[3-[1-(difluoromethyl)-3,5-dimethyl-pyrazol-4-yl]pyrazolo[1,5-a]pyridin-5-yl]furan-2-carboxylic acid]: the half-inhibitory concentration (IC50) on human PASK fell in the range of 0.01 to 10 nM.

As to `COCCOc1nc(-c2ccn3ncc(-c4c(C)noc4C)c3c2)sc1C(=O)O` [Cpd 59, 2-[3-(3,5-dimethylisoxazol-4-yl)pyrazolo[1,5-a]pyridin-5-yl]-4-(2-methoxyethoxy) thiazole-5-carboxylic acid], the IC50 on human PASK lay in the range of 0.01 to 10 nM.

Compound `Cc1nn(C(C)C)c(C)c1-c1cnn2ccc(-n3cc(C(=O)O)cn3)cc12` [Cpd 52, 1-[3-(1-isopropyl-3,5-dimethyl-pyrazol-4-yl)pyrazolo[1,5-a]pyridin-5-yl]pyrazole-4-carboxylic acid] returned a half-inhibitory concentration (IC50) against human PASK of 0.01 to 10 nM.

`Cc1noc(C)c1-c1cnn2ccc(-c3nc(OC(F)F)c(C(=O)O)s3)cc12` [Cpd 61, 4-(difluoromethoxy)-2-[3-(3,5-dimethylisoxazol-4-yl)pyrazolo[1,5-a]pyridin-5-yl]thiazole-5-carboxylic acid] returned an IC50 on human PASK of 0.01 to 10 nM.

Turning to `Cc1noc(C)c1-c1cnn2ccc(-c3nc(OC4COC4)c(C(=O)O)s3)cc12` [Cpd 58, 2-[3-(3,5-dimethylisoxazol-4-yl)pyrazolo[1,5-a]pyridin-5-yl]-4-(oxetan-3-yloxy) thiazole-5-carboxylic acid], the IC50 on human PASK is 0.01 to 10 nM.

Turning to `Cc1nn(C(C)C)c(C)c1-c1cnn2ccc(-n3cc(C(=O)O)c(C(F)(F)F)n3)cc12` [Cpd 80, 1-[3-(1-isopropyl-3,5-dimethyl-pyrazol-4-yl)pyrazolo[1,5-a]pyridin-5-yl]-3-(trifluoromethyl)pyrazole-4-carboxylic acid], at human PASK, the IC50 is 10 to 100 nM.
